According to ChEMBL document CHEMBL1131178, “Novel disaccharide inhibitors of human glioma cell division” (1998):

System: C6
Assay: Inhibitory activity against rat C6 Glioma cells stimulated with Fetal bovine serum; Not detectable
Format: functional, cell-based

Compound	ID50
CCCCCCCCO[C@H]1O[C@@H](COCC(CO)(CO)COS(=O)(=O)O)[C@@H](OCC(CO)(CO)COS(=O)(=O)O)[C@H](O[C@@H]2O[C@@H](C)[C@@H](O)[C@H](O)[C@@H]2O)[C@@H]1NC(C)=O	Not detectable
CCCCCCCCO[C@H]1O[C@@H](CO)[C@@H](OCC(CO)(CO)COS(=O)(=O)O)[C@H](O[C@@H]2OC(C)[C@@H](O)[C@H](O)[C@@H]2O)[C@@H]1NC(C)=O (some centres undefined)	Not detectable
CCCCCCCCO[C@H]1O[C@@H](COCC(CO)(CO)COS(=O)(=O)O)C(O)[C@H](O[C@@H]2O[C@@H](C)[C@@H](O)[C@H](O)[C@@H]2O)[C@@H]1NC(C)=O (some centres undefined)	Not detectable
CCCCCCCCOC1OC(COCC(CO)(CO)CO)C(O)C(OC2OC(C)C(O)C(O)C2O)C1NC(C)=O (centres undefined)	Not detectable
